In patent publication US7880007B2, “Bicyclic substituted phenyl piperidine modulators of muscarinic receptors” (Vertex Pharmaceuticals Incorporated, priority 2004, dated 2011):

How the values were obtained:
Type in all cases: cell-based
[1] = target: T1, M2 muscarinic receptor (Homo sapiens, UniProt P08172); experiment: Functional mobilization of intracellular calcium (FLIPR), M2-CHO cells; conditions: for Emax: 100% efficacy = maximum response obtained with the Carbachol control; for M2 Activity: M2-CHO cells, calcium mobilization (FLIPR)
T1 construct: expressed in transfected cells; host or cells: CHO (M2-CHO)
T1 sequence (P08172 1-466): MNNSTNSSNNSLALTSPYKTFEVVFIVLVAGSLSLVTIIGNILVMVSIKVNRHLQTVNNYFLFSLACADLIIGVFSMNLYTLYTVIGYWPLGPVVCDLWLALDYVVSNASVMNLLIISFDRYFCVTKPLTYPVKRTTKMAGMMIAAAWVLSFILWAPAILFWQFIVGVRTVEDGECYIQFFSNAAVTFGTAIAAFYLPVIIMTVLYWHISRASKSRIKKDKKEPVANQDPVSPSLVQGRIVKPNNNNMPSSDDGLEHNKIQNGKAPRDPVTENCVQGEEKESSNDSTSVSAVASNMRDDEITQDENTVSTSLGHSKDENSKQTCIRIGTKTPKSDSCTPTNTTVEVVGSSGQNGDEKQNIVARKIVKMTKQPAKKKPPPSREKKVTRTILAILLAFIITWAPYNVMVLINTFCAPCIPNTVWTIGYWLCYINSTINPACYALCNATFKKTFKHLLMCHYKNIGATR
Outline: (§1)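 Calcium mobilisation read by FLIPR over 60 s (ex 488/em 540 nm) in recombinant muscarinic CHO lines loaded with calcium dye plus 1 mM probenecid. Compounds tested as agonists alone, or as inhibitors against EC80 carbachol after 15 min pre-incubation or co-addition; 0.5% DMSO; efficacy scaled to carbachol maximal response.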

[2] = target: T2, M1 muscarinic receptor (Homo sapiens, UniProt P11229); experiment: Functional mobilization of intracellular calcium (FLIPR), M1-CHO cells; conditions: for Emax: 100% efficacy = maximum response obtained with the Carbachol control; for M1 Activity: M1-CHO cells, calcium mobilization (FLIPR)
T2 construct: expressed in transfected cells; host or cells: CHO (M1-CHO)
T2 sequence (P11229 1-460): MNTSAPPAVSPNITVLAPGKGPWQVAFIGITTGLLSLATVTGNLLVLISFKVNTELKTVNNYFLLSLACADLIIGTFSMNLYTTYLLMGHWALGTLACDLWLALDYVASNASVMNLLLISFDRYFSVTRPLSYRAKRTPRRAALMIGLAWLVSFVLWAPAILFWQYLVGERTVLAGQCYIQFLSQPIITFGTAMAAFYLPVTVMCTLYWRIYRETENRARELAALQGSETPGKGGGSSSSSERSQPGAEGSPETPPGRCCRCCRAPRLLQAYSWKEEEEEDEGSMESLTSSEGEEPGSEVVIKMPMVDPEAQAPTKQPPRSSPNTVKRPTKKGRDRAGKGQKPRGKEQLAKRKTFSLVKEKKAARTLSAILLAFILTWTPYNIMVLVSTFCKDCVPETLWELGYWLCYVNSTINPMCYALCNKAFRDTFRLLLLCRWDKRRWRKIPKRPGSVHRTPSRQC
Outline: as §1

[3] = target: T3, M4 muscarinic receptor (Homo sapiens, UniProt P08173); experiment: Functional mobilization of intracellular calcium (FLIPR), M4-CHO cells; conditions: for Emax: 100% efficacy = maximum response obtained with the Carbachol control; for M4 Activity: M4-CHO cells, calcium mobilization (FLIPR)
T3 construct: expressed in transfected cells; host or cells: CHO (M4-CHO)
T3 sequence (P08173 1-479): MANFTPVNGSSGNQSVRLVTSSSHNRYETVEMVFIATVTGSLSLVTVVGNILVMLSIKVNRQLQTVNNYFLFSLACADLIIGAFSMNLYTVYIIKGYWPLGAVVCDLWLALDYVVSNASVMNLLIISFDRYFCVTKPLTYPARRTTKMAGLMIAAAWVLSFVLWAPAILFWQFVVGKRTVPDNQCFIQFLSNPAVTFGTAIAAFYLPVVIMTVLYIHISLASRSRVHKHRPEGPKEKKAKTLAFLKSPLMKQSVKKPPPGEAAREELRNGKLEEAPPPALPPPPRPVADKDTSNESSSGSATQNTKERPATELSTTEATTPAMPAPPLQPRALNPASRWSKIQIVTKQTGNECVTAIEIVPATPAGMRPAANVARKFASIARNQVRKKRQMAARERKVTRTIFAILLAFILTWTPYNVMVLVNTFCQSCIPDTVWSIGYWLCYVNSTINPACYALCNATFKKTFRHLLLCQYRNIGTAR
Outline: as §1

[4] = target: T4, M3 muscarinic receptor (Homo sapiens, UniProt P20309); experiment: Functional mobilization of intracellular calcium (FLIPR), M3-CHO cells; conditions: for M3 Activity: M3-CHO cells, calcium mobilization (FLIPR); for Emax: 100% efficacy = maximum response obtained with the Carbachol control
T4 construct: expressed in transfected cells; host or cells: CHO (M3-CHO)
Outline: as §1

T4 sequence (P20309 whole entry): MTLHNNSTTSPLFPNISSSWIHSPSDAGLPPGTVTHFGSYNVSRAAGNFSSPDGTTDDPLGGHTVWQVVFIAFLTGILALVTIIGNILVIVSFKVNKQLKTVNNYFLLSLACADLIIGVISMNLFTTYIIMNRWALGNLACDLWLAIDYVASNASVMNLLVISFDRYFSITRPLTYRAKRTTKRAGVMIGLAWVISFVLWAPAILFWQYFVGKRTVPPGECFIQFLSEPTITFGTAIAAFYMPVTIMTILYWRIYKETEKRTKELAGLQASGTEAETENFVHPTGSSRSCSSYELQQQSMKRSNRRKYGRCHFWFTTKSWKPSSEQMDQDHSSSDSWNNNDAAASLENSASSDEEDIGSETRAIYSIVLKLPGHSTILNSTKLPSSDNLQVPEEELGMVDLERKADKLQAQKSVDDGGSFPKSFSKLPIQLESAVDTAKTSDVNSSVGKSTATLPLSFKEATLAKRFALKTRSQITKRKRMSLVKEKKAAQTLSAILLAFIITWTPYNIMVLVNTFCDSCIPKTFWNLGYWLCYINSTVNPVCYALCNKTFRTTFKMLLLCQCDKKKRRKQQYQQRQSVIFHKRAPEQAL

| Structure (SMILES) | Emax [1] [%] | Emax [2] [%] | Emax [3] [%] | Emax [4] [%] | M2 Activity [1] | M1 Activity [2] | M4 Activity [3] | M3 Activity [4] |
| --- | --- | --- | --- | --- | --- | --- | --- | --- |
| Cc1ccccc1C1(O)CCN(CC2CC3C=CC2C3)CC1 (centres unmarked) [Compound 171] | < 25 | 25 to 100 | 25 to 100 |  | + (activity was measured to be greater than 5.0 μM) | ++ (activity was measured to be from 1.0 μM to 5.0 μM) | +++ (activity was measured to be less than 1.0 μM) | + (activity was measured to be greater than 5.0 μM) |
| COc1ccc(-c2ccc(CC#N)cc2)cc1C1CCN(C2CC3CCC(C3)C2)CC1 (centres unmarked) [Compound 173] | < 25 | < 25 | 25 to 100 | < 25 | + (activity was measured to be greater than 5.0 μM) | + (activity was measured to be greater than 5.0 μM) | + (activity was measured to be greater than 5.0 μM) | + (activity was measured to be greater than 5.0 μM) |
| COc1ccc(Cl)c(C2CCN(C3C[C@H]4CC[C@H]3C4)CC2)c1 (some centres unmarked) [Compound 174] | < 25 | < 25 | < 25 | < 25 | + (activity was measured to be greater than 5.0 μM) | + (activity was measured to be greater than 5.0 μM) | + (activity was measured to be greater than 5.0 μM) | + (activity was measured to be greater than 5.0 μM) |
| COc1ccccc1C1CCN(C2CCC(C3CCCCC3)CC2)CC1 (centres unmarked) [Compound 175] | < 25 | < 25 | < 25 | < 25 | + (activity was measured to be greater than 5.0 μM) | + (activity was measured to be greater than 5.0 μM) | + (activity was measured to be greater than 5.0 μM) | + (activity was measured to be greater than 5.0 μM) |
| COc1ccc(F)cc1C1CCN(C2CCCCCC2)CC1 [Compound 176] | 25 to 100 | 25 to 100 | 25 to 100 | < 25 | ++ (activity was measured to be from 1.0 μM to 5.0 μM) | +++ (activity was measured to be less than 1.0 μM) | +++ (activity was measured to be less than 1.0 μM) | + (activity was measured to be greater than 5.0 μM) |
| CCOC(=O)N1CCC(CN2CCC(c3cc(OC)cc(F)c3F)CC2)CC1 [Compound 177] | < 25 | 25 to 100 | 25 to 100 | < 25 | + (activity was measured to be greater than 5.0 μM) | +++ (activity was measured to be less than 1.0 μM) | +++ (activity was measured to be less than 1.0 μM) | + (activity was measured to be greater than 5.0 μM) |
| COc1ccc(-c2ccccc2Cl)cc1C1CCN([C@H]2C[C@H]3CC[C@H]2C3)CC1 [Compound 178] | < 25 | < 25 | 25 to 100 | < 25 | + (activity was measured to be greater than 5.0 μM) | + (activity was measured to be greater than 5.0 μM) | + (activity was measured to be greater than 5.0 μM) | + (activity was measured to be greater than 5.0 μM) |
| CCOC(=O)N1C2CCC1CC(N1CCC(c3ccc(F)cc3OC)CC1)C2 (centres unmarked) [Compound 179] | < 25 | 25 to 100 | 25 to 100 | < 25 | + (activity was measured to be greater than 5.0 μM) | +++ (activity was measured to be less than 1.0 μM) | +++ (activity was measured to be less than 1.0 μM) | + (activity was measured to be greater than 5.0 μM) |
| Cc1ccccc1C1CCN(C2CC3CCC2C3)CC1 (centres unmarked) [Compound 180] | < 25 | 25 to 100 | 25 to 100 | < 25 | + (activity was measured to be greater than 5.0 μM) | ++ (activity was measured to be from 1.0 μM to 5.0 μM) | +++ (activity was measured to be less than 1.0 μM) | + (activity was measured to be greater than 5.0 μM) |

Second part, led by results:

| Emax [1] [%] | Emax [2] [%] | Emax [3] [%] | Emax [4] [%] | Structure (SMILES) | M2 Activity [1] | M1 Activity [2] | M4 Activity [3] | M3 Activity [4] |
| --- | --- | --- | --- | --- | --- | --- | --- | --- |
| 25 to 100 | 25 to 100 | 25 to 100 | < 25 | COc1ccc(Cl)cc1C1CCN(C2CCCCCC2)CC1 [Compound 181] | ++ (activity was measured to be from 1.0 μM to 5.0 μM) | ++ (activity was measured to be from 1.0 μM to 5.0 μM) | +++ (activity was measured to be less than 1.0 μM) | + (activity was measured to be greater than 5.0 μM) |
| < 25 | 25 to 100 | 25 to 100 | < 25 | FC(F)(F)Oc1ccccc1C1CCN([C@H]2C[C@H]3CC[C@H]2C3)CC1 [Compound 183] | + (activity was measured to be greater than 5.0 μM) | + (activity was measured to be greater than 5.0 μM) | +++ (activity was measured to be less than 1.0 μM) | + (activity was measured to be greater than 5.0 μM) |
| < 25 | < 25 | < 25 | < 25 | COc1ccc(-c2ccc(C(=O)NCCCO)cc2)cc1C1CCN(C2CCOCC2)CC1 [Compound 184] | + (activity was measured to be greater than 5.0 μM) | + (activity was measured to be greater than 5.0 μM) | + (activity was measured to be greater than 5.0 μM) | + (activity was measured to be greater than 5.0 μM) |
| 25 to 100 | 25 to 100 | 25 to 100 | < 25 | COc1ccc(C)cc1C1CCN([C@H]2CC[C@H]3CC[C@H]2C3)CC1 [Compound 185] | + (activity was measured to be greater than 5.0 μM) | ++ (activity was measured to be from 1.0 μM to 5.0 μM) | +++ (activity was measured to be less than 1.0 μM) | + (activity was measured to be greater than 5.0 μM) |
| 25 to 100 | 25 to 100 | 25 to 100 | < 25 | COc1ccc(Br)cc1C1CCN([C@@H]2C[C@@H]3CC[C@H]2C3)CC1 [Compound 187, 1-((1S,2R,4R)-bicyclo[2.2.1]heptan-2-yl)-4-(5-bromo-2-methoxyphenyl)piperidine] | ++ (activity was measured to be from 1.0 μM to 5.0 μM) | +++ (activity was measured to be less than 1.0 μM) | +++ (activity was measured to be less than 1.0 μM) | + (activity was measured to be greater than 5.0 μM) |
| 25 to 100 | 25 to 100 | 25 to 100 | < 25 | Cc1ccc(C(=O)COc2ccccc2C2CCN([C@H]3C[C@H]4CC[C@H]3C4)CC2)cc1 [Compound 188] | + (activity was measured to be greater than 5.0 μM) | + (activity was measured to be greater than 5.0 μM) | ++ (activity was measured to be from 1.0 μM to 5.0 μM) | + (activity was measured to be greater than 5.0 μM) |
